Measurements taken from patent publication US8889143B2, “Ii-key/HER-2/neu hybrid cancer vaccine” (Antigen Express, Inc., priority 2006, dated 2014).

What was measured:
PBMC [1] = assay: IFN-γ ELISPOT assays (ex vivo and 7-day) on patient PBMC; assay type: cell-based, human; settings: PBMC of patients vaccinated with AE37; label = stimulating peptide
From the text: Blood was drawn from patients prior to receiving each inoculation, at one month (post-vaccination), and at six months (long-term) after completing the series. Forty ml of peripheral blood was drawn into Vacutainer® CPT™ tubes (Becton Dickinson, Franklin Lakes, N.J.) and centrifuged for the isolation of PBMC populations. […]
The human IFN-γ ELISPOT Kit (BD-Pharmingen) was used for the ELISPOT assays. […] The plate was allowed to dry and the number of spots present in each well was counted and analyzed using a CTL-ImmunoSpot Analyzer (C.T.L. Cellular Technology Ltd, OH) (FIGS. 7-10). […]
The PBMC population prepared from the patient's peripheral blood (as described in the previous section) was resuspended at 2×10^6 cells/ml in CM and added as 1 ml aliquots to the 8 wells. […] At the end of the incubation period the plate was removed and the cells/cultures were harvested into separate tubes, spun down, resuspended in CM, and counted. […] The plate was allowed to dry and the number of spots present in each well was counted and analyzed using a CTL-ImmunoSpot Analyzer (C.T.L. Cellular Technology Ltd, OH) (FIGS. 11-14). […]

[2] = Phase II trial: DTH reactions; assay type: in vivo, human; settings: label = challenge peptide
From the text: (§1) Immunologic response was monitored by measured delayed type hypersensitivity reactions (DTH) and ^3H-thymidine proliferative assays for both hybrid AE37 (LRMK+HER2/neu:776-790) and AE36 (unmodified HER2/neu:776-790) peptides.

PBMC [3] = assay: 3H-thymidine proliferation assay on patient PBMC; assay type: cell-based, human; settings: PBMC of patients vaccinated with AE37, label = stimulating peptide
From the text: Blood was drawn from patients prior to receiving each inoculation, at one month (post-vaccination), and at six months (long-term) after completing the series. Forty ml of peripheral blood was drawn into Vacutainer® CPT™ tubes (Becton Dickinson, Franklin Lakes, N.J.) and centrifuged for the isolation of PBMC populations. PBMC were washed in HBSS and re-suspended in culture medium (CM) consisting of RPMI-1640 containing 10% FCS (Gemini Bio-Products, Woodland, Calif.) supplemented with 1× penicillin/L-glutamine/streptomycin (Life Technologies, Gaithersburg, Md.) and used for setting up the immunomonitoring protocol/assays which consisted of ELISPOT (IFN-γ secretion) and proliferation (3H-thymidine incorporation) assays. All cultures were maintained in a humidified incubator at 37° C. in 5% CO2.
The PBMC population prepared from the patient's peripheral blood sample was also used for the monitoring of vaccine-specific proliferative activity of the T lymphocytes using a standard radioactive ^3H-thymidine incorporation assay. […] The filtermat was dried and placed in a sample bag with scintillation fluid (BetaScint, Perkin-Elmer) and counted using a scintillation counter (MicroBeta Trilux Scintillation Counter, Perkin-Elmer). The proliferative activity associated with the cultures was measured by the amount of thymidine incorporation which was determined as counts per minute (cpm). […]

[4] = Phase II trial: 3H-thymidine proliferative assays; assay type: cell-based, human; settings: label = stimulating peptide
From the text: as §1

[5] = Phase Ib trial: delayed type hypersensitivity (DTH) reaction; assay type: in vivo, human; settings: 100 μg AE37 intradermal without GM-CSF
Procedure: A direct in vivo measure of the vaccine's effectiveness is the DTH reaction. Patients were injected intradermally with 100 μg of AE37 (without GM-CSF) prior to the initiation of the vaccination series and one month after the completion of the vaccination regimen in the opposite limb to which they received the vaccine series. Patients were also injected intradermally with a parallel control (sterile saline, same volume) at a site on the back or extremity (opposite side from the vaccination site). The DTH reaction was measured in two dimensions at 48-72 hours using the sensitive ballpoint pen method and compared with control. Pre- and post-vaccination DTH reactions were also compared.

[6] = in vivo
Procedure: (§2) Toxicity is assessed after each inoculation using National Cancer Institute Common Terminology Criteria for Adverse Events v3.0 (CTCAE). […] Patients are clinically, radiographically, and pathologically monitored for recurrence of BCa.

[7] = Phase II trial: recurrence of breast cancer; assay type: in vivo, human; settings: for Recurrences (patients/total) / Recurrences: median follow up of 13 months; for Recurrences: PG vs AG p=0.08
Procedure: as §2

[8] = in vivo; remark: listed apart in the source
From the text: The dose escalation safety trial design is for five groups of three patients to receive escalating doses of AE37 with or without GM-CSF in six monthly inoculations. An additional six patients will be vaccinated at the optimal biologic dosing (OBD) in order to complete the 21 patient phase I trial. Enrolled patients were HLA typed, and HLA-A2^− patients and those HLA-A2^+ patients not interested in an alternative vaccine trial were vaccinated.
The National Institutes of Health Common Toxicity Criteria (CTC) (Version 2, Mar. 23, 1998) definitions of adverse events were applied. Both local toxicity at the injection sites as well as systemic toxicity were evaluated in all patients for all inoculations. By design, progression to the second stage occurred only if no significant toxicity occurred in the first stage.
Toxicities were graded per the National Institutes of Health Common Toxicity Criteria and reported on a scale zero to five (Table 3). Local toxicity dictated dose reductions as described above.

[9] = Phase Ib trial: local reaction and dose reductions; assay type: in vivo, human
Procedure: The study was performed as a two-stage safety trial to define the maximum tolerated dose of vaccine as well as the optimal dosing of the vaccine and GM-CSF. In the first stage (FIGS. 1-4), patient dose groups were given escalating amounts of the AE37 peptide. Three patients were assigned to each dosing group and were given the assigned dose of AE37 with a fixed initial dose of GM-CSF of 250 μg. This dose of GM-CSF was chosen based on our previous E75 trials. However, GM-CSF was reduced 50% for subsequent inoculations when local skin reaction exceeded 100 mm. All patients received monthly inoculations for six months. Dosing groups were as follows (AE37 (μg):#inoculations): 100:6, 500:6, 1000:6. Because each patient in the 500:6 group required significant and repeated reductions of GM-CSF, the 1000:6 group was initially inoculated without GM-CSF; GM-CSF was added back if local reaction from the two injection sites were non-confluent.
The hybrid peptide AE37 was mixed with GM-CSF (varying doses) and injected intradermally in the same extremity on a monthly basis. Each dosing group consisted of 3 patients. […] Stage I was designed to identify the maximum tolerated dose of vaccine. Stage II was designed to find the optimal biologic dose. Local toxicity dictated dose adjustments in each stage.
A local reaction ≧100 mm in at least one direction necessitates a reduction of GM-CSF dose for the subsequent vaccination (or reduction in vaccine dose if patient received no GM-CSF). […] FIGS. 1-4 show the dose of GM-CSF and the local reaction in each patient throughout the vaccine series.

[10] = Phase II trial AE37+GM-CSF versus GM-CSF alone: toxicity (CTCAE v3.0); settings: six monthly inoculations, AG = GM-CSF alone
Procedure: as §2

[11] = Her-2/neu+ breast cancer patients; cited from earlier work
[12] = system: hen egg white lysozyme (HEL)-specific T cell hybridoma; settings: cited from earlier work
[13] = AG group (GM-CSF alone), p>0.05 vs baseline
[14] = PG group (AE37 + GM-CSF), p<0.0001 vs baseline
[15] = PG (AE37 + GM-CSF), at 3, 6, and 12 months after the start of the vaccine series, p<0.015

Ac-GVGSPYVSRLLGICL-NH2 [AE36, native HER-2/neu peptide aa776-790, reference compound]
CD4+ T cell response (IFN-γ ELISPOT) to stimulating peptide after vaccination (PBMC [1]): increased CD4+ T cell response
Median DTH reaction at baseline ([2]; AG group (GM-CSF alone)): 0.0±0.5 cm
Median DTH reaction at 1 month after completion of the primary series [2, 13]: 0 mm
Median DTH reaction at baseline ([2]; PG group (AE37 + GM-CSF)): 0.0±0.8 cm
Median DTH reaction at 1 month after completion of the primary series [2, 14]: 15.3 ± 2.1 mm
Peptide-specific proliferation of T cells after vaccination (PBMC [3]): increased capacity to divide and expand a specific clone
Peptide-specific proliferation of T cells after vaccination (PBMC [3]; listed as native Her-2/neu peptide): increased CD4+ T cell response
Median proliferation response versus baseline ([4]; AG (GM-CSF alone)): did not significantly change
Median proliferation response versus baseline [4, 15]: significantly increased from baseline

Ac-LRMKGVGSPYVSRLLGICL-NH2 [AE37]
DTH diameter of local reaction pre vaccine, range ([5]; before vaccination series): 0-17 mm
DTH diameter of local reaction post-vaccine, range ([5]; one month after completion of series): 12-106 mm
DTH mean diameter of local reaction post-vaccine ([5]; one month after completion of series, p<0.0001 vs pre): 62 mm
DTH mean diameter of local reaction pre vaccine ([5]; read at 48-72 hours, before vaccination series): 4.9 mm
Median DTH reaction at baseline ([2]; AG group (GM-CSF alone)): 0.0±0.7 cm
Median DTH reaction at 1 month after completion of the primary series [2, 13]: 0 mm
Median DTH reaction at baseline ([2]; PG group (AE37 + GM-CSF)): 0.0±0.7 cm
Median DTH reaction at 1 month after completion of the primary series [2, 14]: 24.5 ± 2.6 mm
Overall safety [6]: safe
Recurrences (patients/total) [7]: 0/49
Recurrences [7]: 0.0%
Protection against BCa recurrences ([7]; phase II): protects against BCa recurrences
Grade 3 or greater local toxicities [8]: no grade 3 or greater local toxicities
Local toxicity grade, all patients [8]: grade 1 or 2 local toxicity
Maximum Toxicity, Local Toxicity Grade 1, number of patients (%) [8]: 3 (25)%
Maximum Toxicity, Local Toxicity Grade 2, number of patients (%) [8]: 9 (75%)
Maximum Toxicity, Local Toxicity Grade 3, number of patients (%) [8]: 0 (0%)
Maximum Toxicity, Systemic Toxicity Grade 1, number of patients (%) [8]: 10 (83%)
Maximum Toxicity, Systemic Toxicity Grade 2, number of patients (%) [8]: 0 (0%)
Maximum Toxicity, Systemic Toxicity Grade 3, number of patients (%) [8]: 0 (0%)
Overall safety and tolerability [8]: safe and well-tolerated with minimal systemic toxicity observed
Systemic toxicities reported [8]: Only grade 1 systemic toxicities
Dose reductions required because of local reaction ≧100 mm ([9]; first group 100:6 (100 μg AE37 + 250 μg GM-CSF)): required no reductions in dose
Dose reductions required because of local reaction ≧100 mm ([9]; second group 500:6 (500 μg AE37 + 250 μg GM-CSF initially)): required a GM-CSF dose reduction by the third vaccine
Dose reductions required because of local reaction ≧100 mm ([9]; third group 1000:6 (1000 μg AE37 initiated without GM-CSF)): two of the three patients in this group required reduction of vaccine dose on multiple occasions
Median proliferation response versus baseline ([4]; AG (GM-CSF alone)): did not significantly change
Median proliferation response versus baseline [4, 15]: significantly increased from baseline

GM-CSF
Recurrences (patients/total) [7]: 5/71
Recurrences [7]: 7.0%
Local toxicities ([10]; PG = 500 mcg AE37 + 62.5 or 125 mcg GM-CSF): no grade 4-5 local toxicities
Systemic toxicities ([10]; PG = AE37 + GM-CSF): no grade 3-5 systemic toxicities

GP2: immunogenic peptide of Her-2/neu used in clinical trials as vaccine (IISAVVGIL; UniProt P04626 654-662, looked up, fragment)
Safety in patients [11]: safe in patients
Stimulation of antigen specific immunity [11]: effective in stimulating antigen specific immunity

LRMK [four-amino-acid Ii-Key moiety, Ii 77-80]
Activity retained relative to LRMKLPK [12]: at least 50%

LRMKLPK
Potency relative to the original 16-amino acid peptide [12]: greater potency than the original 16-amino acid peptide
